From ChEMBL document CHEMBL5696442, “Discovery of type II inhibitors of TGFβ-activated kinase 1 (TAK1) and mitogen-activated protein kinase kinase kinase kinase 2 (MAP4K2)” (J Med Chem, 2015)
The source made the active and inactive calls. The rule behind the calls is not given here.

Columns and labels:
[1] = target: T1, PAN2-PAN3 deadenylation complex subunit PAN3 (Homo sapiens) (UniProt Q58A45); assay: Inhibition of PAN3 Protein Kinase Domain labeling site in human Huh-7 cell lysate at 1 uM by KiNativ Profiling analysis relative to control; assay type: subcellular
T1 sequence (whole entry): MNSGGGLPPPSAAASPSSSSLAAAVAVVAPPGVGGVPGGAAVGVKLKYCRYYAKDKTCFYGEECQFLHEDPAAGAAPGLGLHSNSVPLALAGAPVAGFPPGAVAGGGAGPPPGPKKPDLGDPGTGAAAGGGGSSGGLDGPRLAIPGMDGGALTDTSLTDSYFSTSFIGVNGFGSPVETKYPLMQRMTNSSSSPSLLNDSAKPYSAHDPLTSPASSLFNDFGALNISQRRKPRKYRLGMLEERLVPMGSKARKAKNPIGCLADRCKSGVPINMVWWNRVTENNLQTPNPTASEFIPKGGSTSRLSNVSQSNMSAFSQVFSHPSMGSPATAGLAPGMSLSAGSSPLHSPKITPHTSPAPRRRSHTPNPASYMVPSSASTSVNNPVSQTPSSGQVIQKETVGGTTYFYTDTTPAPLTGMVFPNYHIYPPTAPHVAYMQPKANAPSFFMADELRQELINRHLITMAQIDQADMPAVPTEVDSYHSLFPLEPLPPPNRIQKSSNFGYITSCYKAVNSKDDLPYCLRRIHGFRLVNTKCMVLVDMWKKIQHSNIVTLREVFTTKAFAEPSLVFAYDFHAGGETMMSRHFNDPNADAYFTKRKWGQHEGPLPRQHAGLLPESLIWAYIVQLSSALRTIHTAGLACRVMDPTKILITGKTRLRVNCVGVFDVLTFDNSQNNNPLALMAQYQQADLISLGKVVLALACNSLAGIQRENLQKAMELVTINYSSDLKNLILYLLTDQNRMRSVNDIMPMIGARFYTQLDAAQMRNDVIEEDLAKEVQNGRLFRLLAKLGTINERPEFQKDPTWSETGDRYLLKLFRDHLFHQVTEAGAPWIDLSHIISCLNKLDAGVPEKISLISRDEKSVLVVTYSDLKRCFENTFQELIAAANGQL

[2] = target: T2, Mitogen-activated protein kinase kinase kinase 3 (Homo sapiens) (UniProt Q99759); assay: Inhibition of MAP3K3 Lys2 labeling site in human A-375 cells at 0.05 uM by KiNativ Profiling analysis relative to control; assay type: cell-based
T2 sequence (whole entry): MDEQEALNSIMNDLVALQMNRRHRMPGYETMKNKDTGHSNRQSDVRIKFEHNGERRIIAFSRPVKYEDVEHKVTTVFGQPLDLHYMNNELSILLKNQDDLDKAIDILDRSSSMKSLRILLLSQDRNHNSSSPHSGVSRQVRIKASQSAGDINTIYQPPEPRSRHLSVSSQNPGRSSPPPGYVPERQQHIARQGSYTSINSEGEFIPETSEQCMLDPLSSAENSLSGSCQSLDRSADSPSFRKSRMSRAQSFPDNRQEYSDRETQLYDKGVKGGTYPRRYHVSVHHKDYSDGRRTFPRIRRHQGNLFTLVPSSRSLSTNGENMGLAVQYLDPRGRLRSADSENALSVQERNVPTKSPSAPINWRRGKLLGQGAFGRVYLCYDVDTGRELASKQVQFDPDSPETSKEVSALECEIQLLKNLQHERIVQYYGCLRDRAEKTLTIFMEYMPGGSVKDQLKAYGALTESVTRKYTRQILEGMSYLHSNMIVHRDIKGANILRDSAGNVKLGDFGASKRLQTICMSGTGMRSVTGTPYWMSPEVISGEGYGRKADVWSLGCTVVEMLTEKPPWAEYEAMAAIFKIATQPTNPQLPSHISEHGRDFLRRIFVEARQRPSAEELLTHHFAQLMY

[3] = system: Epidermal growth factor receptor (Homo sapiens), P00533 [UNDEFINED MUTATION]; assay: Inhibition of EGFR L747-T751del mutant (unknown origin) at 10 uM by Ambit Kinomescan binding assay relative to control
Chain of Epidermal growth factor receptor (Homo sapiens), P00533 [UNDEFINED MUTATION] (P00533 whole entry, looked up, stated change not applied): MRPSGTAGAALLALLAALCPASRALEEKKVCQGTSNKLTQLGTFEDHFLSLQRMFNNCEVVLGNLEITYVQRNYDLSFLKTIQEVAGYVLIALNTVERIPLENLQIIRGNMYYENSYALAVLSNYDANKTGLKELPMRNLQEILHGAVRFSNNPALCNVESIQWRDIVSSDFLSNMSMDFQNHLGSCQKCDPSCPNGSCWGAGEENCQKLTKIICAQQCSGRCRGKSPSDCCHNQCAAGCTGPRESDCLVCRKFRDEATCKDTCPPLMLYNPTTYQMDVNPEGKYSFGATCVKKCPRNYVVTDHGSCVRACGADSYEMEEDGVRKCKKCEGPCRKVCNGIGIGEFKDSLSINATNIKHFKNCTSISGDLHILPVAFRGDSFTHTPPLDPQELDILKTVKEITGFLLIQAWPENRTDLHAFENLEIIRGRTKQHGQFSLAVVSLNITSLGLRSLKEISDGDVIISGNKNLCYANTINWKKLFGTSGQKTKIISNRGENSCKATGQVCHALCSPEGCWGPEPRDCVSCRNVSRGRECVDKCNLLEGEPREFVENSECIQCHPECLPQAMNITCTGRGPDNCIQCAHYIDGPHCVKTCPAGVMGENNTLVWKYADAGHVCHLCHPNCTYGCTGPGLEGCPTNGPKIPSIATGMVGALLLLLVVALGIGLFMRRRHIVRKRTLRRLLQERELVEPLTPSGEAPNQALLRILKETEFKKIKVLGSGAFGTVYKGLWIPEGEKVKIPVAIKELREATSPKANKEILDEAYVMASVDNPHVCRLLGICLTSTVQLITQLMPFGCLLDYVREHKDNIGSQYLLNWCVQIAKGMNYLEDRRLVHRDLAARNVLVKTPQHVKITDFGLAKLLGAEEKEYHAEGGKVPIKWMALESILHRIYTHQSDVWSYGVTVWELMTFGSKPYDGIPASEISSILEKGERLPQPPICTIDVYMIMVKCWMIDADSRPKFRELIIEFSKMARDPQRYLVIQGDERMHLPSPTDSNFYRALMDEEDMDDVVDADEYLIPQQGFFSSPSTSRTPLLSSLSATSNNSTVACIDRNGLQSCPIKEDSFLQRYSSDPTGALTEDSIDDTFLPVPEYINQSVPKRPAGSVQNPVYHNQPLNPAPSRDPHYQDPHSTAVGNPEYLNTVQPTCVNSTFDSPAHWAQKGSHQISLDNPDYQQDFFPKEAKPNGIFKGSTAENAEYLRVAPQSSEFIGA

[4] = target: T3, Myotonin-protein kinase (Homo sapiens) (UniProt Q09013); assay: Inhibition of DMPK (unknown origin) at 10 uM by Ambit Kinomescan binding assay
T3 sequence (whole entry): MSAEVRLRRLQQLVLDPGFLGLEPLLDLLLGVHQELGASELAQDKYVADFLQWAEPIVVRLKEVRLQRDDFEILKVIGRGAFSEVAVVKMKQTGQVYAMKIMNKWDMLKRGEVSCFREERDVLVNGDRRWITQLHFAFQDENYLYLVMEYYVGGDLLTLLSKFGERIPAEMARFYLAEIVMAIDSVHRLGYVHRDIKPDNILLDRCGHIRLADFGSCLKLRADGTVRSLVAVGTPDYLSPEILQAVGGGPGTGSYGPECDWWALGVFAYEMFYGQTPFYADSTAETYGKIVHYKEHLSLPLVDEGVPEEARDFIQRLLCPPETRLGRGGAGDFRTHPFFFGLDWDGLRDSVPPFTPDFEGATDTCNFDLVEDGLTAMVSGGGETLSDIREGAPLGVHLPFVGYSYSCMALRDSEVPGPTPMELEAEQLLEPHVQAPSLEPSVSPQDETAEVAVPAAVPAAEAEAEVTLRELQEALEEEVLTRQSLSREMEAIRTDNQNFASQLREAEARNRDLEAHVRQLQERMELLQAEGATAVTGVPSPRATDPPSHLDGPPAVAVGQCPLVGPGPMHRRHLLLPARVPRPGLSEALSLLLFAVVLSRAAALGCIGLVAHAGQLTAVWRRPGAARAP

[5] = target: T4, Dual specificity mitogen-activated protein kinase kinase 6 (Homo sapiens) (UniProt P52564); assay: Inhibition of MAP2K6 Lys1 labeling site in human A-375 cells at 5 uM by KiNativ Profiling analysis relative to control; assay type: cell-based
T4 sequence (whole entry): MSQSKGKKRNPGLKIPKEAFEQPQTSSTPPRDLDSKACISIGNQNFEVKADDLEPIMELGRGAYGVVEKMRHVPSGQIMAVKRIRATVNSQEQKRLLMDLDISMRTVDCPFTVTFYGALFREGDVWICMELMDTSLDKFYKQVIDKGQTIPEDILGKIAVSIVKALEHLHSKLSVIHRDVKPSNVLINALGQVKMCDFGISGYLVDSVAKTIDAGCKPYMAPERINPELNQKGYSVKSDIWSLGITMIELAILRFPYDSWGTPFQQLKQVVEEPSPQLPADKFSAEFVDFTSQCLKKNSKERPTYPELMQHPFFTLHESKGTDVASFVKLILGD

## CNc1cc(Oc2cc(C(=O)Nc3cc(N4CCN(C)CC4)cc(C(F)(F)F)c3)ccc2C)ncn1
[1]
  inhibition: -2.9%

## CCN1CCN(Cc2ccc(NC(=O)c3ccc(C)c(Oc4ccnc5[nH]ccc45)c3)cc2C(F)(F)F)CC1
[2]
  inhibition: 7.6%
[3]
  inhibition: 1.1%
[4]
  inhibition: inactive

## CCN1CCN(Cc2ccc(NC(=O)c3ccc(C)c(/C=C/c4cnc5[nH]ccc5c4OC)c3)cc2C(F)(F)F)CC1
[5]
  inhibition: -0.7%
